Measurements published in the NIST ThermoML archive (doi:10.1021/je4009415).

Experiment: xn = mol fraction of the nth substance listed
Conditions: Liquid, Vibrating tube method

CCOC(=O)CC [ethyl propanoate] + CCCCCCC
Conditions | mass density [kg/m3]
288.15 K, x1 = 0.0524 | 695.91
288.15 K, x1 = 0.0988 | 703.07
288.15 K, x1 = 0.1463 | 710.63
288.15 K, x1 = 0.1941 | 718.6
288.15 K, x1 = 0.2514 | 728.31
288.15 K, x1 = 0.3018 | 737.02
288.15 K, x1 = 0.3473 | 745.24
288.15 K, x1 = 0.4004 | 755.32
288.15 K, x1 = 0.4483 | 764.49
288.15 K, x1 = 0.5023 | 775.33
288.15 K, x1 = 0.5493 | 785.04
288.15 K, x1 = 0.6523 | 807.55
288.15 K, x1 = 0.7155 | 821.91
288.15 K, x1 = 0.7532 | 830.95
288.15 K, x1 = 0.7965 | 841.54
288.15 K, x1 = 0.8566 | 856.59
288.15 K, x1 = 0.9037 | 868.82
288.15 K, x1 = 0.9502 | 881.54
288.15 K, x1 = 1 | 895.58
298.15 K, x1 = 0.0502 | 687.02
298.15 K, x1 = 0.0966 | 693.85
298.15 K, x1 = 0.1618 | 704.16
298.15 K, x1 = 0.24 | 717.15
298.15 K, x1 = 0.3102 | 729.24
298.15 K, x1 = 0.401 | 745.76
298.15 K, x1 = 0.4502 | 755.12
298.15 K, x1 = 0.5047 | 765.87
298.15 K, x1 = 0.598 | 785.24
298.15 K, x1 = 0.6478 | 796.11
298.15 K, x1 = 0.6968 | 807.1
298.15 K, x1 = 0.7456 | 818.46
298.15 K, x1 = 0.7933 | 829.93
298.15 K, x1 = 0.8547 | 845.07
298.15 K, x1 = 0.9029 | 857.64
298.15 K, x1 = 0.952 | 870.77
298.15 K, x1 = 1 | 884.15
308.15 K, x1 = 0.0489 | 677.99
308.15 K, x1 = 0.0972 | 685.13
308.15 K, x1 = 0.1622 | 695.08
308.15 K, x1 = 0.2109 | 702.86
308.15 K, x1 = 0.2409 | 707.93
308.15 K, x1 = 0.3084 | 719.36
308.15 K, x1 = 0.352 | 727.08
308.15 K, x1 = 0.4029 | 736.28
308.15 K, x1 = 0.44 | 743.31
308.15 K, x1 = 0.5033 | 755.53
308.15 K, x1 = 0.5515 | 765.29
308.15 K, x1 = 0.6049 | 776.34
308.15 K, x1 = 0.6546 | 787.12
308.15 K, x1 = 0.6957 | 796.27
308.15 K, x1 = 0.7472 | 808.1
308.15 K, x1 = 0.8001 | 820.72
308.15 K, x1 = 0.8549 | 834.09
308.15 K, x1 = 0.8932 | 843.97
308.15 K, x1 = 0.949 | 858.62
308.15 K, x1 = 1 | 872.62
318.15 K, x1 = 0.0535 | 669.87
318.15 K, x1 = 0.0979 | 676.31
318.15 K, x1 = 0.1459 | 683.47
318.15 K, x1 = 0.2045 | 692.71
318.15 K, x1 = 0.262 | 702.04
318.15 K, x1 = 0.3009 | 708.59
318.15 K, x1 = 0.3494 | 717.01
318.15 K, x1 = 0.4057 | 727.08
318.15 K, x1 = 0.4487 | 735.05
318.15 K, x1 = 0.5052 | 745.9
318.15 K, x1 = 0.552 | 755.16
318.15 K, x1 = 0.5969 | 764.38
318.15 K, x1 = 0.6529 | 776.27
318.15 K, x1 = 0.7022 | 787.15
318.15 K, x1 = 0.7467 | 797.21
318.15 K, x1 = 0.7935 | 808.2
318.15 K, x1 = 0.8452 | 820.6
318.15 K, x1 = 0.8929 | 832.6
318.15 K, x1 = 0.9484 | 847.05
318.15 K, x1 = 1 | 861.08
328.15 K, x1 = 0.0528 | 660.86
328.15 K, x1 = 0.1065 | 668.58
328.15 K, x1 = 0.1619 | 676.84
328.15 K, x1 = 0.2123 | 684.53
328.15 K, x1 = 0.2511 | 690.83
328.15 K, x1 = 0.3081 | 700.22
328.15 K, x1 = 0.3519 | 707.73
328.15 K, x1 = 0.4084 | 717.71
328.15 K, x1 = 0.4478 | 724.83
328.15 K, x1 = 0.5074 | 736.13
328.15 K, x1 = 0.5522 | 744.86
328.15 K, x1 = 0.6033 | 755.17
328.15 K, x1 = 0.6454 | 764.1
328.15 K, x1 = 0.7023 | 776.34
328.15 K, x1 = 0.7443 | 785.77
328.15 K, x1 = 0.7989 | 798.4
328.15 K, x1 = 0.8593 | 812.97
328.15 K, x1 = 0.8983 | 822.61
328.15 K, x1 = 0.9494 | 835.87
328.15 K, x1 = 1 | 849.41
